The results in this text go back to patent US20140227173A1, “CANCER TREATMENT WITH GAMMA-SECRETASE INHIBITORS” (The Johns Hopkins University, priority 2006, published 2014).

“Also recorded” adds a separate entry of the source.

One test has as its system DAOY. Briefly: Tumor engraftment in mice treated intraperitoneally after subcutaneous cell injection. Type of test: in vivo, athymic nude mice. The following applies: 0.5 mg i.p. in DMSO for five consecutive days from day of xenograft initiation, four mice. As to the method:
(§1) FIG. 8G is a graph plotting xenograft volume against number of days following injection of DAOY and DAOY:NIC2D cells in athymic nude mice, which were either treated with vehicle or 0.5 mg i.p. of GSI-18 for 5 consecutive days following subcutaneous tumor injection.
(§2) As a test of the requirement for ongoing Notch activity during tumor engraftment, animals were treated with GSI-18 after subcutaneously injecting DAOY and DAOY:NICD2 cells into their left and right flanks. A treatment group of four mice received intraperitoneal injections containing 0.5 mg GSI-18 in DMSO for five consecutive days, beginning on the day of xenograft initiation, while the control group was treated with vehicle alone.

Another test deals with DAOY:NICD2. The test is described as above. The settings on record: 0.5 mg i.p. for five consecutive days. Type of test: in vivo, athymic nude mice. As to the method: as §1, §2
For the next test, the system named is GBM20913. The experiment in a line: Survival of mice bearing intracranial xenografts of pretreated GBM neurosphere cells. In kind it is in vivo. The following applies: vs vehicle (DMSO) treated cells.
Test [1] concerns Notch pathway target Hes1. Briefly: Hes1 mRNA and protein levels (RT PCR, Western blot). Type of test: cell-based. On the procedure:
The DAOY, PFSK, D283 and D425 Med cell lines were obtained from the American Type Culture Collection. The low-passage MB line MB2 was derived from a tumor resected at Johns Hopkins Hospital. For treatment studies, cell were plated and allowed to grow overnight in MEM (Invitrogen, Carlsbad, Calif.) containing 10% FBS, then media was replaced the next morning with low serum (0.5% FBS) MEM containing GSI dissolved in DMSO. RNA and protein extractions, and all cell-based assays, were performed 48 hours after drug application unless otherwise noted. All experiments with error bars were performed in triplicate and shown as mean values with standard error unless otherwise noted. Cell mass was measured using CellTITER assays according to the manufacturer's instructions (Promega, Madison, Wis.). Cell number and viability were assessed using the Guava PCA and Viacount reagent according to instructions (Guava Technologies, Heyward, Calif.). Soft agar assays were performed as previously described (15) and scored either manually after 4 weeks or using as automated reader after 6 weeks. […] Soft agar assays were performed as previously described, with colonies counted using an automated reader (15).
Quantitative RT PCR for Notch1, Notch2 and Hes1 was performed as previously described (29), with all reactions normalized to actin (Applied Biosystems, Foster City, Calif.). […]

Regarding `O=S(=O)(NC1C2CCC1Cc1ccccc1C2)c1cccs1` (stereo not drawn) [GSI-18, [11-endo]-N-(5,6,7,8,9,10-hexahydro-6,9-methanobenzo[α][8]annulen-11-yl)-thiophene-2-sulfonamide], the “engraftment in treated animals” value in the test on DAOY is given as “failed to engraft in three of the four”. Also, in the test on DAOY:NICD2, the “tumor development in treated animals” value is “Tumors also developed”. In the test with GBM20913, the “survival of mice with intracranial xenografts from pretreated cells” value is reported as “prolonged survival; also recorded: longer survival”. The “reduction of mRNA and protein levels of Hes1” value in test [1] (2 μM, after 48 hours) is “over 70%”. For the same compound, in test [1] (data not shown), the “levels that did not affect Hes1 mRNA levels” value is given as “lower than 0.4 μM”.
